# Measured values taken from patent US10208067B2, “Compounds for treating spinal muscular atrophy” (Hoffmann-La Roche Inc., priority 2015, dated 2019).
# Like-named read-outs stand apart in the source and are kept apart here.
# How the values were obtained:
# [1] = test system: full length SMN2 minigene mRNA (HEK293H cells stably transfected with SMN2-A minigene); assay: RT-qPCR assay for SMN2 minigene pre-mRNA splicing in cultured cells; assay type: cell-based; details: Homo sapiens, HEK293-H, 24 hours
# [2] = test system: SMN protein in SMA patient fibroblast cells (GM03813); assay: SMN protein assay (HTRF) in cultured cells; assay type: cell-based; details: Homo sapiens, SMA Type 1 patient fibroblasts, 48 hours; for EC (1.5-fold): concentration producing 1.5 times SMN protein vs vehicle, read-out: EC1.5x SMN protein; for maximal fold induction: relative to vehicle control, read-out: max. fold increase of SMN protein
# Method: The SMN HTRF (homogeneous time resolved fluorescence) assay is used to quantify the level of SMN protein in SMA patient fibroblast cells treated with test compounds. Materials used and respective sources are listed below in Table 4.
# Cells are thawed and cultured in DMEM-10% FBS for 72 hours. Cells are trypsinized, counted and re-suspended to a concentration of 25,000 cells/mL in DMEM-10% FBS. The cell suspensions are plated at 5,000 cells per well in a 96 well microtiter plate and incubated for […]. […] 1 μL of test compound solution is transferred to cell-containing wells and cells are incubated for 48 hours in a cell culture incubator (37° C., 5% CO2, 100% relative humidity). Triplicate samples are set up for each test compound concentration. After 48 hours, the supernatant is removed from the wells and 25 μL of the RIPA lysis buffer, containing protease inhibitors, is added to the wells and incubated with shaking at room temperature for 1 hour. 25 μL of the diluent is added and then 35 μL of the resulting lysate is transferred to a 384-well plate, where each well contains 5 μL of the antibody solution (1:100 dilution of anti-SMN d2 and anti-SMN cryptate in SMN reconstitution buffer). The plate is centrifuged for 1 minute to bring the solution to the bottom of the wells, then incubated overnight at room temperature. Fluorescence for each well of the plate at 665 nm and 620 nm is measured on an EnVision multilabel plate reader (Perkin-Elmer).
# The normalized fluorescence signal is calculated for each sample, Blank and vehicle control well by dividing the signal at 665 nm by the signal at 620 nm. Normalizing the signal accounts for possible fluorescence quenching due to the matrix effect of the lysate. The ΔF value (a measurement of SMN protein abundance as a percent value) for each sample well is calculated by subtracting the normalized average fluorescence for the Blank control wells from the normalized fluorescence for each sample well, then dividing this difference by the normalized average fluorescence for the Blank control wells and multiplying the resulting value by 100. The ΔF value for each sample well represents the SMN protein abundance from test compound-treated samples. The ΔF value for each sample well is divided by the ΔF value for the vehicle control wells to calculate the fold increase in SMN protein abundance relative to the vehicle control. Table 5 provides EC1-5× concentrations for SMN protein expression that was obtained from the 7-point concentration data generated according to the above procedure for particular compounds of the present invention.
# Table 6 provides the maximum fold increase of SMN protein that was obtained from the 7-point concentration data generated according to the above procedure for particular compounds of the present invention
# [3] = concentration increasing full length SMN2 minigene mRNA 1.5-fold vs vehicle, read-out: EC1.5x minigene
# [4] = Table 3 (title: production of full length SMN2 minigene mRNA), read-out: EC1.5x SMN protein
smiles,measurement,setting,value
"Cc1nc2ccc(-c3cc(=O)n4cc(N5CCN[C@H](C)C5)ccc4n3)nn2n1 [Example 17, 7-[(3R)-3-methylpiperazin-1-yl]-2-(2-methyl-[1,2,4]triazolo[1,5-b]pyridazin-6-yl)pyrido[1,2-a]pyrimidin-4-one]",EC (1.5-fold),[1]; [3],0.0191 µM
same,EC (1.5-fold),[2],0.0932 µM
same,maximal fold induction,[2],1.82
"Cc1nc2ccc(-c3cc(=O)n4cc(N5C[C@@H](C)N[C@@H](C)C5)cc(C)c4n3)nn2n1 [Example 26, 7-[(3R,5S)-3,5-dimethylpiperazin-1-yl]-9-methyl-2-(2-methyl-[1,2,4]triazolo[1,5-b]pyridazin-6-yl)pyrido[1,2-a]pyrimidin-4-one]",EC (1.5-fold),[1]; [4],0.0483 µM
same,EC (1.5-fold),[2],0.225 µM
same,maximal fold induction,[2],1.88
"Cc1nc2ccc(-c3cc(=O)n4cc(N5CC6CN(C)CC6C5)ccc4n3)nn2n1 (stereo not drawn) [Example 33, 7-(2-methyl-1,3,3a,4,6,6a-hexahydropyrrolo[3,4-c]pyrrol-5-yl)-2-(2-methyl-[1,2,4]triazolo[1,5-b]pyridazin-6-yl)pyrido[1,2-a]pyrimidin-4-one]",EC (1.5-fold),[1]; [4],0.0038 µM
same,EC (1.5-fold),[2],0.0151 µM
same,maximal fold induction,[2],1.67
"Cc1nc2ncc(-c3cc(=O)n4cc(N5CCN(C)CC5)ccc4n3)cn2n1 [Example 23, 7-(4-methylpiperazin-1-yl)-2-(2-methyl-[1,2,4]triazolo[1,5-a]pyrimidin-6-yl)pyrido[1,2-a]pyrimidin-4-one]",EC (1.5-fold),[1]; [4],0.0952 µM
same,EC (1.5-fold),[2],0.477 µM
same,maximal fold induction,[2],1.68
"Cc1nc2ccc(-c3cc(=O)n4cc(N5CCN(C)CC5)cc(C)c4n3)nn2n1 [Example 27, 9-methyl-7-(4-methylpiperazin-1-yl)-2-(2-methyl-[1,2,4]triazolo[1,5-b]pyridazin-6-yl)pyrido[1,2-a]pyrimidin-4-one]",EC (1.5-fold),[1]; [4],0.014 µM
same,EC (1.5-fold),[2],0.0347 µM
same,maximal fold induction,[2],1.74
"Cc1nc2ccc(-c3cc(=O)n4cc(N5CCNC(C)(C)C5)cc(C)c4n3)nn2n1 [Example 28, 7-(3,3-dimethylpiperazin-1-yl)-9-methyl-2-(2-methyl-[1,2,4]triazolo[1,5-b]pyridazin-6-yl)pyrido[1,2-a]pyrimidin-4-one]",EC (1.5-fold),[1]; [4],0.0096 µM
same,EC (1.5-fold),[2],0.0353 µM
same,maximal fold induction,[2],1.79
"Cc1nc2ncc(-c3cc(=O)n4cc(N5CC6(CN(C)C6)C5)ccc4n3)cn2n1 [Example 21, 7-(6-methyl-2,6-diazaspiro[3.3]heptan-2-yl)-2-(2-methyl-[1,2,4]triazolo[1,5-a]pyrimidin-6-yl)pyrido[1,2-a]pyrimidin-4-one]",EC (1.5-fold),[1]; [4],0.145 µM
same,EC (1.5-fold),[2],0.56 µM
same,maximal fold induction,[2],1.6
"Cc1nc2ccc(-c3cc(=O)n4cc(N5C[C@@H]6C[C@H]7CNC[C@]76C5)ccc4n3)nn2n1 [Example 47, 7-((3aR,4aR,7aS)-hexahydro-1H-cyclobuta[1,2-c:1,4-c′]dipyrrol-2(3H)-yl)-2-(2-methyl-[1,2,4]triazolo[1,5-b]pyridazin-6-yl)-4H-pyrido[1,2-a]pyrimidin-4-one]",EC (1.5-fold),[1]; [4],0.0041 µM
same,EC (1.5-fold),[2],0.0249 µM
same,maximal fold induction,[2],1.87
"Cc1nc2ncc(-c3cc(=O)n4cc(N5CC6(CCNCC6)C5)ccc4n3)cn2n1 [Example 5, 7-(2,7-diazaspiro[3.5]nonan-2-yl)-2-(2-methyl-[1,2,4]triazolo[1,5-a]pyrimidin-6-yl)pyrido[1,2-a]pyrimidin-4-one]",EC (1.5-fold),[1]; [3],< 0.0317 µM
same,EC (1.5-fold),[2],0.106 µM
same,maximal fold induction,[2],1.99
"Cc1nc2ncc(-c3cc(=O)n4cc(N5CCN[C@@H](C)C5)ccc4n3)cn2n1 [Example 16, 7-[(3S)-3-methylpiperazin-1-yl]-2-(2-methyl-[1,2,4]triazolo[1,5-a]pyrimidin-6-yl)pyrido[1,2-a]pyrimidin-4-one]",EC (1.5-fold),[1]; [3],0.115 µM
same,EC (1.5-fold),[2],0.281 µM
same,maximal fold induction,[2],1.71
"Cc1nc2ccc(-c3cc(=O)n4cc(N5CCN(C)CC5)ccc4n3)nn2n1 [Example 39, 7-(4-methylpiperazin-1-yl)-2-(2-methyl-[1,2,4]triazolo[1,5-b]pyridazin-6-yl)pyrido[1,2-a]pyrimidin-4-one]",EC (1.5-fold),[1]; [4],0.0272 µM
same,EC (1.5-fold),[2],0.09 µM
same,maximal fold induction,[2],1.74
"Cc1nc2ccc(-c3cc(=O)n4cc(N5CCN[C@@H](C)C5)ccc4n3)nn2n1 [Example 18, 7-[(3S)-3-methylpiperazin-1-yl]-2-(2-methyl-[1,2,4]triazolo[1,5-b]pyridazin-6-yl)pyrido[1,2-a]pyrimidin-4-one]",EC (1.5-fold),[1]; [4],0.0176 µM
same,EC (1.5-fold),[2],0.0515 µM
same,maximal fold induction,[2],1.72
"CCN1CCN(c2cc(C)c3nc(-c4ccc5nc(C)nn5n4)cc(=O)n3c2)CC1 [Example 32, 7-(4-ethylpiperazin-1-yl)-9-methyl-2-(2-methyl-[1,2,4]triazolo[1,5-b]pyridazin-6-yl)pyrido[1,2-a]pyrimidin-4-one]",EC (1.5-fold),[1]; [4],0.0038 µM
same,EC (1.5-fold),[2],0.0725 µM
same,maximal fold induction,[2],1.97
"Cc1nc2ccc(-c3cc(=O)n4cc(N5CC6(CCNC6)C5)cc(C)c4n3)nn2n1 [Example 48, 7-(2,7-diazaspiro[3.4]octan-2-yl)-9-methyl-2-(2-methyl-[1,2,4]triazolo[1,5-b]pyridazin-6-yl)pyrido[1,2-a]pyrimidin-4-one]",EC (1.5-fold),[1]; [4],0.168 µM
same,EC (1.5-fold),[2],1.32 µM
same,maximal fold induction,[2],1.68
"Cc1nc2ncc(-c3cc(=O)n4cc(N5CCN[C@H](C)C5)ccc4n3)cn2n1 [Example 24, 7-[(3R)-3-methylpiperazin-1-yl]-2-(2-methyl-[1,2,4]triazolo[1,5-a]pyrimidin-6-yl)pyrido[1,2-a]pyrimidin-4-one]",EC (1.5-fold),[1]; [4],0.0348 µM
same,EC (1.5-fold),[2],0.121 µM
same,maximal fold induction,[2],1.87
"Cc1nc2ccc(-c3cc(=O)n4cc(N5CCN(C6COC6)CC5)cc(C)c4n3)nn2n1 [Example 31, 9-methyl-7-[4-(oxetan-3-yl)piperazin-1-yl]-2-(2-methyl-[1,2,4]triazolo[1,5-b]pyridazin-6-yl)pyrido[1,2-a]pyrimidin-4-one]",EC (1.5-fold),[1]; [4],0.13 µM
same,EC (1.5-fold),[2],1.31 µM
same,maximal fold induction,[2],1.75
"Cc1nc2ccc(-c3cc(=O)n4cc(N5CC6(CCNCC6)C5)cc(C)c4n3)nn2n1 [Example 35, 7-(2,7-diazaspiro[3.5]nonan-2-yl)-9-methyl-2-(2-methyl-[1,2,4]triazolo[1,5-b]pyridazin-6-yl)pyrido[1,2-a]pyrimidin-4-one]",EC (1.5-fold),[1]; [4],0.0022 µM
same,EC (1.5-fold),[2],0.0082 µM
same,maximal fold induction,[2],1.9
"Cc1nc2ncc(-c3cc(=O)n4cc(N5CCC(CN6CCCC6)CC5)ccc4n3)cn2n1 [Example 12, 7-[4-(pyrrolidin-1-ylmethyl)-1-piperidyl]-2-(2-methyl-[1,2,4]triazolo[1,5-a]pyrimidin-6-yl)-pyrido[1,2-a]pyrimidin-4-one]",EC (1.5-fold),[1]; [3],0.161 µM
same,EC (1.5-fold),[2],> 31.6 µM
same,maximal fold induction,[2],1.36
"Cc1nc2ncc(-c3cc(=O)n4cc(N5C[C@H](C)N[C@@H](C)C5)ccc4n3)cn2n1 [Example 11, 7-[(3S,5S)-3,5-dimethylpiperazin-1-yl]-2-(2-methyl-[1,2,4]triazolo[1,5-a]pyrimidin-6-yl)pyrido[1,2-a]pyrimidin-4-one]",EC (1.5-fold),[1]; [3],< 0.03 µM
same,EC (1.5-fold),[2],0.175 µM
same,maximal fold induction,[2],1.77
